Values quoted from earlier work as cited in patent US20200268770A1, “PHARMACEUTICAL COMPOSITION USED FOR TREATING METABOLIC SYNDROME DISORDERS, INFECTIOUS DISEASES, AND COMPLICATIONS THEREOF” (priority 2017, published 2020).
Like-named read-outs stand apart in the source and are kept apart here.

Tests used:
[1] = system: C57BL/6 mice fed with high fat foods
3T3-L1 cells = 3T3-L1 cells stimulated by differentiation inducers
[2] = pre-treatment, C57BL/6 mice fed with high fat foods

| SMILES | fasting blood glucose levels [1, 2] | hepatic lipid accumulation [1, 2] | serum triglycerides (TG) [1, 2] | size of white and brown adipocytes [1, 2] | fasting blood glucose levels ([1]; therapeutic, obese mice) | glucose tolerance ([1]; therapeutic, obese mice) | high-density lipoprotein cholesterol (HDL-c) ([1]; therapeutic, obese mice) | low-density lipoprotein cholesterol (LDL-c) ([1]; therapeutic, obese mice) | serum TG ([1]; therapeutic, obese mice) | glycated hemoglobin (after 21 days) | nitric oxide (after 21 days) | progression of diabetes (after 21 days) | serum glucose (after 21 days) | serum insulin levels (after 21 days) | antioxidant levels (in vivo) | content of thiobarbituric acid-reactive substances (in vivo) | TG synthesis (3T3-L1 cells) | lipid droplet accumulation (3T3-L1 cells) |
| --- | --- | --- | --- | --- | --- | --- | --- | --- | --- | --- | --- | --- | --- | --- | --- | --- | --- | --- |
| C=C(C)[C@H]1CC=C(C)CC1 [d-limonene] | lowered | prevented | lowered | decreased | reduced | reduced | increased | reduced | reduced | – | – | – | – | – | – | – | – | – |
| C=C(C)[C@@H]1CC[C@]2(C)CC[C@]3(C)[C@H](CC[C@@H]4[C@@]5(C)CC[C@H](O)C(C)(C)[C@@H]5CC[C@]43C)[C@@H]12 [lupeol] | – | – | – | – | – | – | – | – | – | decrease | decrease | suppressed | decrease | concomitant increase | increased | decrease | strongly blocked | strongly blocked |
